{"source": "patent US11013786B2", "about": "“Therapy” (SELECTIMMUNE PHARMA AB, priority 2015, dated 2021)", "key": {"IL-1β processing": {"system": "IL-1β processing", "assay": "IL-1β processing in infected human bladder epithelial cells with caspase inhibition (Western blot)", "type": "cell-based", "conditions": "human bladder epithelial cells infected with acute cystitis strains, 4 h, pre-incubated with inhibitor 100 μM, 30 min", "description": "Cells were cultured as described above, but in particular in 6-well plates (7×10^5 cells/well, Thermo Fisher Scientific), lysed with RIPA lysis buffer, supplemented with protease and phosphatase inhibitors (Roche Diagnostics). They may then be fractionated using NE-PER Nuclear and Cytoplasmic extraction reagents (Thermo Scientific). For Caspase inhibition, cells were pre-incubated with Z-VAD(OMe)-FMK (#BML-P416-0001, Enzo Life Science, 100 μM, 30 min). Supernatants were filtered and concentrated by trichloroacetic acid precipitation, followed by acetone desiccation. […] Bands were quantified by ImageJ. […]\nCell lysates and supernatants from infected cells were subjected to Western blot analysis, with antibodies specific for IL-1β. Two fragments of approximately 29 kDa and 16-18 kDa were detected, corresponding to the N-terminal pro-piece and mature IL-1β."}, "IL-1β": {"system": "IL-1β", "assay": "IL-1β in urine of treated infected Asc−/− mice (Western blot analysis of urine samples)", "type": "in vivo", "conditions": "CFT073, IL-1RA (Anakinra) 1 mg i.p. daily", "description": "IL-1β, IL-6 and IL-8 concentrations in filtered supernatants (Syringe Filter w/0.2 um PES, VWR) were determined by Immulite 1000 (Siemens) and Il-1β concentrations in cell supernatants or urine by Human or Mouse Il-1b/IL-1F2 DuoSet ELISA kits (R&D Systems). Urine MMP-7 levels were quantified with Human total MMP-7 Immunoassay Quantikine® ELISA (R&D Systems).\nCells were cultured as described above, but in particular in 6-well plates (7×10^5 cells/well, Thermo Fisher Scientific), lysed with RIPA lysis buffer, supplemented with protease and phosphatase inhibitors (Roche Diagnostics). They may then be fractionated using NE-PER Nuclear and Cytoplasmic extraction reagents (Thermo Scientific). For Caspase inhibition, cells were pre-incubated with Z-VAD(OMe)-FMK (#BML-P416-0001, Enzo Life Science, 100 μM, 30 min). Supernatants were filtered and concentrated by trichloroacetic acid precipitation, followed by acetone desiccation. […] Bands were quantified by ImageJ.\nTo address the contribution of MMP-7 to pathology, Asc^−/− mice were also treated with an MMP inhibitor (Batimastat), (0.5 mg in 100 μl of PBS i.p. 30 minutes before, first three and last three days of infection, FIG. 6A). […] By immunohistochemistry, some retention of unprocessed IL-1β in bladder tissue was detected, consistent with the need for MMP-7 and IL-1R to secrete mature IL-1β."}, "[1]": {"system": "Asc^−/− mice infected with E. coli CFT073", "assay": "Acute cystitis immunotherapy in the experimental urinary tract infection model (Asc−/− mice infected with E. coli CFT073)", "type": "in vivo", "conditions": "for macroscopic bladder pathology, edema and hyperemia: vs untreated"}, "[2]": {"conditions": "CFT073, Anakinra 1 mg i.p. daily, 7 days"}}, "note": "Entries after “also recorded” stand apart in the source; their conditions may differ. Peptide text beside a SMILES is read from it. * marks the point of attachment. Cbz = O=C(OCc1ccccc1)*; CH2F = FC*"}
{"molecule": "COC(=O)C[C@H](NC(=O)[C@H](C)NC(=O)[C@@H](NC(=O)OCc1ccccc1)C(C)C)C(=O)CF", "note": "[Z-VAD, Z-VAD(OMe)-FMK] (Cbz-Val-Ala-Asp(OMe)-CH2F)", "values": [{"measurement": "inhibition of IL-1β processing", "setting": "IL-1β processing", "result": "about 20%"}]}
{"molecule": "Anakinra: IL-1 receptor antagonist, Anakinra (Kineret, SOBI)", "values": [{"measurement": "mature IL-1β in urine", "setting": "IL-1β", "result": "loss"}, {"measurement": "mucosal integrity", "setting": "[1]; [2]", "result": "maintained"}, {"measurement": "mucosal neutrophil infiltrate", "setting": "[1]; [2]", "result": "prevented"}, {"measurement": "urine neutrophil numbers", "setting": "[1]; CFT073, Anakinra 1 mg i.p. daily, 7 days after infection", "result": "low"}, {"measurement": "pathology in bladder tissue sections", "setting": "[1]; CFT073, Anakinra 1 mg i.p. daily, 7 days, H&E", "result": "marked reduction"}, {"measurement": "macroscopic bladder pathology, edema and hyperemia", "setting": "[1]; [2]", "result": "protected"}, {"measurement": "macroscopic bladder pathology, edema and hyperemia", "setting": "[1]; CFT073, Anakinra 1 mg i.p. daily, 7 days, listed as IL-1RA", "result": "prevented"}, {"measurement": "bacterial counts", "setting": "[1]; CFT073, Anakinra 1 mg i.p. daily, urine, 7 days after infection", "result": "remained elevated"}, {"measurement": "therapeutic effect / protection from acute cystitis", "setting": "[1]; E. coli CFT073, Anakinra 1 mg in 100 μl PBS i.p. 30 min before and daily after infection, 7 days, vs untreated Asc−/− mice", "result": "dramatic therapeutic effect; also recorded: protects; also recorded: prevented"}]}
